Experimental findings from patent US20050209278A1, “Piperidinyl- and piperazinyl-sulfonylmethyl hydroxamic acids and their use as protease inhibitors” (priority 2002, published 2005) are described below.

The structures appear in SMILES notation.

For one assay, the target named is T1, MMP-9 (Homo sapiens, UniProt P14780).
T1 construct: made in house; host or cells: MMP-9-transfected HT1080 cells (spent media)
In words: In vitro MMP inhibition, Ki determination (fluorogenic substrate II). In kind it is biochemical. The following applies: value not in parenthesis. In a few lines: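 HT1080-derived MMP-9, activated with APMA, trypsin or MMP-3, incubated 1 hr at room temperature with inhibitor and 4 μM fluorogenic substrate II (at or below Km) in pH 7.5 Tris/NaCl/CaCl2 buffer; ex 330/em 420 nm. Ki from Morrison-equation regression, without substrate correction.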

For a further assay, the target named is T2, MMP-2 (Homo sapiens, UniProt P08253).
T2 construct: made in house; host or cells: MMP-2-transfected p2AHT2 cells
T2 sequence (P08253 110-660): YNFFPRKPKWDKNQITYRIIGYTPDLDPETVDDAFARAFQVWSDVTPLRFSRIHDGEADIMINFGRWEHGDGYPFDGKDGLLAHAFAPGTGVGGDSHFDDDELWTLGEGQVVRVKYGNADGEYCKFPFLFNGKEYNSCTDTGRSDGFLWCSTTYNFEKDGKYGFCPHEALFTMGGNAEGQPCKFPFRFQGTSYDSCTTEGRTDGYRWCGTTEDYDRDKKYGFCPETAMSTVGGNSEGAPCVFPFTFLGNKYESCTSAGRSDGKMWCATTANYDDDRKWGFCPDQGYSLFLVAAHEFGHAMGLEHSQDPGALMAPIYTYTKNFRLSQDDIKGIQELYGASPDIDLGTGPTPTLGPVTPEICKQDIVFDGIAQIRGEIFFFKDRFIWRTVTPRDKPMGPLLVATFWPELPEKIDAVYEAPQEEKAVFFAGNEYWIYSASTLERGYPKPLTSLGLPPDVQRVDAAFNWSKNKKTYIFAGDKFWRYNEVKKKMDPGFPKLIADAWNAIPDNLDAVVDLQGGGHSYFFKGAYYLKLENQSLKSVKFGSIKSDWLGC
Described as above. Format: biochemical. The following applies: value not in parenthesis; read-out: MMP-2 Ki.

T1 sequence (P14780 107-707 limits assumed): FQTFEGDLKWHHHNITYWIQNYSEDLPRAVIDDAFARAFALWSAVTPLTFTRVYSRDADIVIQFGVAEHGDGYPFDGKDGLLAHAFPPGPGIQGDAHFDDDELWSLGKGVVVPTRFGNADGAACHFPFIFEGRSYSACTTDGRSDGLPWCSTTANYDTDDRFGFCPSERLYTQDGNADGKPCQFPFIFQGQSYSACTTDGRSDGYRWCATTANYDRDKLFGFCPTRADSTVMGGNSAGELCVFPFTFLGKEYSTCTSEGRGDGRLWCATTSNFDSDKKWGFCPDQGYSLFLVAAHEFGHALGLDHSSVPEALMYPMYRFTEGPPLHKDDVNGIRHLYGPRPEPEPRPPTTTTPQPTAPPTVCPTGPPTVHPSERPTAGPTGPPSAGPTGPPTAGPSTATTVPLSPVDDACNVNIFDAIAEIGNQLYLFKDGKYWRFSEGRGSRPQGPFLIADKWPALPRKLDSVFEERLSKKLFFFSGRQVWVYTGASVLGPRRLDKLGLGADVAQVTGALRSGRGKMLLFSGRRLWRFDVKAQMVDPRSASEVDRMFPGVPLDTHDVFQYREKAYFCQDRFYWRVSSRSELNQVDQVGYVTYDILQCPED

For orientation: Ki means a dissociation constant, usually derived from enzyme kinetics or from competition with a known ligand. For `COc1ccc(-c2ccc(N3CCN(S(=O)(=O)C4(C(=O)NO)CCOCC4)CC3)nc2)cc1` [Example 61], the Ki on MMP-9 was determined as 12.3 nM; at MMP-2, 0.39 nM.

Regarding `O=C(NO)C1(S(=O)(=O)N2CCN(c3ccc(OC(F)(F)C(F)F)cc3)CC2)CCSCC1` [Example 62], the Ki on MMP-9 came out at 1.5 nM; at MMP-2, 0.22 nM.

In the case of `CCCCOc1ccc(N2CCN(S(=O)(=O)C3(C(=O)NO)CC3)CC2)cc1` [Example 63], the inhibitory constant (Ki) on MMP-9 came to 7.71 nM; at MMP-2 it was 6.77 nM.

In the case of `CCCCOc1ccc(N2CCN(S(=O)(=O)C3(C(=O)NO)CCN(c4ccc(OC(F)(F)C(F)F)cc4)CC3)CC2)cc1` [Example 65], the inhibition constant (Ki) stood at 128 nM at MMP-9 and 23.6 nM on MMP-2.

Regarding `O=C(NO)C1(S(=O)(=O)N2CCN(c3ccc4c(c3)OC(F)(F)C(F)(F)O4)CC2)CCOCC1` [Example 67], the inhibition constant Ki at MMP-9 amounted to 1380 nM; at MMP-2, 50.5 nM.

Take `O=C(NO)C1(S(=O)(=O)N2CCN(c3ccc(COCC(F)(F)C(F)(F)F)cc3)CC2)CCOCC1` [Example 70]: the values for the Ki on MMP-9 and on MMP-2 were 49.7 nM and 2.57 nM, respectively.

For `CCCCOc1ccc(N2CCN(S(=O)(=O)C3(C(=O)NO)CCN(C(=O)c4ccco4)CC3)CC2)cc1` [Example 156], the figures for the Ki at MMP-9 and on MMP-2 were 1.2 nM and 0.75 nM, respectively.

In the case of `CCCCOc1ccc(N2CCN(S(=O)(=O)C3(C(=O)NO)CCN(c4nccs4)CC3)CC2)cc1` [Example 157], the inhibitory constant (Ki) was determined as 4.28 nM on MMP-9 and 1.47 nM on MMP-2.

For `CCCCOc1ccc(N2CCN(S(=O)(=O)C3(C(=O)NO)CCN(c4ncccn4)CC3)CC2)cc1` [Example 159], the inhibition constant Ki at MMP-9 turned out to be 1.93 nM; at MMP-2 it was 0.702 nM.

As to `CCCCOc1ccc(N2CCN(S(=O)(=O)C3(C(=O)NO)CCN(C(=O)c4cccs4)CC3)CC2)cc1` [Example 160], the inhibitory constant (Ki) amounted to 1.79 nM on MMP-9 and 0.599 nM on MMP-2.

Consider `Cc1ccc(N2CCC(C(=O)NO)(S(=O)(=O)N3CCN(c4ccc(OCCCC(F)(F)F)cc4)CC3)CC2)cc1` [Example 161], for which the Ki on MMP-9 is 134 nM; on MMP-2, 8.26 nM.

Take `O=C(NO)C1(S(=O)(=O)N2CCN(c3ccc(OCCN4CCCC4)cc3)CC2)CCOCC1` [Example 162]: the Ki is 402 nM at MMP-9 and 18.4 nM at MMP-2.

With `CCCCOc1ccc(N2CCN(S(=O)(=O)C3(C(=O)NO)CCN(CCOC)CC3)CC2)cn1` [Example 164], the values for the Ki on MMP-9 and at MMP-2 were 7.53 nM and 28.6 nM, respectively.

`CCCCOc1c(F)cc(N2CCN(S(=O)(=O)C3(C(=O)NO)CCN(CCOC)CC3)CC2)cc1F` [Example 165]: the Ki came out at 14.7 nM on MMP-9 and 0.49 nM at MMP-2.

Consider `COCCN1CCC(C(=O)NO)(S(=O)(=O)N2CCN(c3ccc(OCC(C)C)c(F)c3)CC2)CC1` [Example 166], for which the inhibition constant (Ki) at MMP-9 stood at 2.22 nM; at MMP-2, 0.72 nM.

For `CCCCCc1ccc(N2CCN(S(=O)(=O)C3(C(=O)NO)CCOCC3)CC2)nc1` [Example 167], the figures for the Ki on MMP-9 and on MMP-2 were 0.2 nM and 0.11 nM, respectively.

With `O=C(NO)C1(S(=O)(=O)N2CCN(c3ccccn3)CC2)CCOCC1` [Example 169], the values for the Ki at MMP-9 and on MMP-2 were 4.99 nM and 1.09 nM, respectively.

For the compound `O=C(NO)C1(S(=O)(=O)N2CCN(c3ccc(SC(F)(F)F)cc3)CC2)CCOCC1` [Example 170], the Ki at MMP-9 was 17.1 nM; at MMP-2, 0.24 nM.

On to `CCCc1ccc(N2CCN(S(=O)(=O)C3(C(=O)NO)CCN(c4ccc(C)cc4)CC3)CC2)cc1` [Example 171], for which the values for the Ki on MMP-9 and on MMP-2 were 6.91 nM and 6.82 nM, respectively.

Turning to `CCCCc1ccc(N2CCN(S(=O)(=O)C3(C(=O)NO)CCN(CCOC)CC3)CC2)cc1F` [Example 173], the inhibitory constant (Ki) was found to be 0.149 nM at MMP-9 and 0.209 nM at MMP-2.

As to `COCCN1CCC(C(=O)NO)(S(=O)(=O)N2CCN(c3ccc(C(C)=O)cc3)CC2)CC1` [Example 174], the Ki on MMP-9 stood at 28.9 nM; at MMP-2 it was 2.13 nM.

As to `CCCNC(=O)c1ccc(N2CCN(S(=O)(=O)C3(C(=O)NO)CCN(CCOC)CC3)CC2)cc1` [Example 175], the Ki on MMP-9 came to 440 nM; at MMP-2, 46.9 nM.

For `COCCN1CCC(C(=O)NO)(S(=O)(=O)N2CCN(c3ccccn3)CC2)CC1` [Example 176], the figures for the inhibition constant (Ki) on MMP-9 and at MMP-2 were 9.63 nM and 1.59 nM, respectively.

Consider `CCCCC(=O)c1ccc(N2CCN(S(=O)(=O)C3(C(=O)NO)CCN(CCOC)CC3)CC2)cc1` [Example 177], for which the figures for the inhibitory constant (Ki) at MMP-9 and at MMP-2 were 18.6 nM and 2.33 nM, respectively.

In the case of `CCCc1cnc(N2CCN(S(=O)(=O)C3(C(=O)NO)CCN(CCOC)CC3)CC2)nc1` [Example 178], the inhibition constant Ki on MMP-9 was 2.23 nM; at MMP-2 it was 7.88 nM.

With `CCCC(C)Cc1ccc(N2CCN(S(=O)(=O)C3(C(=O)NO)CCN(CCOC)CC3)CC2)cc1` (centres unmarked) [Example 189], the inhibition constant (Ki) on MMP-9 came to 34.7 nM; at MMP-2, 9.78 nM.

Regarding `CCC(C)Cc1ccc(N2CCN(S(=O)(=O)C3(C(=O)NO)CCN(CCOC)CC3)CC2)cc1` (centres unmarked) [Example 190], the inhibition constant (Ki) on MMP-9 was determined as 3.76 nM; at MMP-2 it was 1.49 nM.

As to `COCCN1CCC(C(=O)NO)(S(=O)(=O)N2CCN(c3ccc(CCCCC(C)C)cc3)CC2)CC1` [Example 191], the inhibitory constant (Ki) on MMP-9 came out at 4.21 nM; at MMP-2, 0.986 nM.

Consider `COCCN1CCC(C(=O)NO)(S(=O)(=O)N2CCN(c3ccc(CC(C)C)cc3)CC2)CC1` [Example 192], for which the Ki turned out to be 9.11 nM at MMP-9 and 1.9 nM on MMP-2.

Consider `CCc1ccc(N2CCN(S(=O)(=O)C3(C(=O)NO)CCN(CCOC)CC3)CC2)cc1` [Example 193], for which the Ki came to 3.11 nM on MMP-9 and 1.21 nM at MMP-2.

For the compound `COCCN1CCC(C(=O)NO)(S(=O)(=O)N2CCN(c3ccc(C)cc3)CC2)CC1` [Example 194], the Ki is 7.19 nM on MMP-9 and 1.74 nM on MMP-2.

On to `COCCN1CCC(C(=O)NO)(S(=O)(=O)N2CCN(c3ccccc3)CC2)CC1` [Example 195], for which the results for the Ki at MMP-9 and on MMP-2 were 23.2 nM and 6.17 nM, respectively.

In the case of `COCCN1CCC(C(=O)NO)(S(=O)(=O)N2CCN(c3nc4ccccc4o3)CC2)CC1` [Example 196], the inhibitory constant (Ki) at MMP-9 is 79.6 nM; at MMP-2, 25.1 nM.

For `CCCCCc1ccc(N2CCN(S(=O)(=O)C3(C(=O)NO)CCOCC3)CC2)nn1` [Example 197], the figures for the Ki at MMP-9 and on MMP-2 were 20.2 nM and 5.78 nM, respectively.

With `O=C(NO)C1(S(=O)(=O)N2CCN(c3ccc(Cl)nn3)CC2)CCOCC1` [Example 198], the Ki at MMP-9 was determined as 252 nM; at MMP-2, 8.28 nM.

`CCCCCCc1ccc(N2CCN(S(=O)(=O)C3(C(=O)NO)CCN(CCOC)CC3)CC2)cc1` [Example 199]: the values for the inhibition constant Ki on MMP-9 and on MMP-2 were 0.892 nM and 0.633 nM, respectively.

Regarding `CCCc1ccc(N2CCN(S(=O)(=O)C3(C(=O)NO)CCN(CCOC)CC3)CC2)cc1` [Example 200], the inhibitory constant (Ki) turned out to be 0.28 nM on MMP-9 and 0.524 nM at MMP-2.

`COCCN1CCC(C(=O)NO)(S(=O)(=O)N2CCN(c3ccc(Br)cc3)CC2)CC1` [Example 201]: the inhibitory constant (Ki) on MMP-9 amounted to 3.48 nM; on MMP-2, 0.521 nM.

As to `COCCN1CCC(C(=O)NO)(S(=O)(=O)N2CCN(c3ccc(OC(F)(F)F)cc3)CC2)CC1` [Example 202], the results for the inhibitory constant (Ki) on MMP-9 and at MMP-2 were 4.67 nM and 0.432 nM, respectively.

Consider `O=C(NO)C1(S(=O)(=O)N2CCN(c3ccc(OC(F)(F)F)cc3)CC2)CCN(C2CC2)CC1` [Example 203], for which the Ki on MMP-9 is 2.5 nM; at MMP-2, 0.28 nM.

With `CCCCCc1ccc(N2CCN(S(=O)(=O)C3(C(=O)NO)CCN(S(N)(=O)=O)CC3)CC2)cc1` [Example 205], the inhibition constant (Ki) at MMP-9 came to 248 nM; on MMP-2, 2.03 nM.

As for `CCCCCc1ccc(N2CCN(S(=O)(=O)C3(C(=O)NO)CCN(C(=O)CC)CC3)CC2)cc1` [Example 206], the results for the inhibition constant Ki at MMP-9 and on MMP-2 were 0.62 nM and 0.63 nM, respectively.

Consider `Cc1ccc(-c2ccc(N3CCN(S(=O)(=O)C4(C(=O)NO)CCOCC4)CC3)cc2)cc1` [Example 207], for which the Ki at MMP-9 was 12.3 nM; at MMP-2, 2.02 nM.

In the case of `O=C(NO)C1(S(=O)(=O)N2CCN(c3ccc(-c4ccc(F)cc4)cc3)CC2)CCOCC1` [Example 208], the Ki on MMP-9 was found to be 0.7 nM; on MMP-2, 0.24 nM.

Take `O=C(NO)C1(S(=O)(=O)N2CCN(c3cnc(CCCC(F)(F)F)cn3)CC2)CCOCC1` [Example 209]: the Ki at MMP-9 was 157 nM; on MMP-2, 3.79 nM.

With `O=C(NO)C1(S(=O)(=O)N2CCN(c3cnc(CCC(F)(F)C(F)(F)F)cn3)CC2)CCOCC1` [Example 210], the values for the inhibition constant (Ki) at MMP-9 and at MMP-2 were 141 nM and 1.04 nM, respectively.

For `O=C(NO)C1(S(=O)(=O)N2CCN(c3ccc(OCC(F)(F)C(F)(F)F)cc3)CC2)CCOCC1` [Example 212], the results for the Ki at MMP-9 and at MMP-2 were 2.91 nM and 0.54 nM, respectively.

As to `CC(C)Cc1ccc(N2CCN(S(=O)(=O)C3(C(=O)NO)CCOCC3)CC2)c(F)c1` [Example 213], the Ki at MMP-9 was 82.4 nM; at MMP-2 it was 12.6 nM.

Consider `CCCCc1nnc(N2CCN(S(=O)(=O)C3(C(=O)NO)CCOCC3)CC2)s1` [Example 214], for which the Ki at MMP-9 came out at 220 nM; on MMP-2, 102 nM.
